Reference: ChEMBL document CHEMBL4613244, “Absolute Configuration and Corrected NMR Assignment of 17-Hydroxycyclooctatin, a Fused 5-8-5 Tricyclic Diterpene” (J Nat Prod, 2020)
Active and inactive are the calls of the source. The calls are words filed in the database; no cut-off is given here.

Tests used:
Type in all cases: functional, cell-based
MCF7 [1] = assay: Antiproliferative activity against human MCF7 cells assessed as reduction in cell viability after 24 hrs by MTT assay; details: MCF7, 24 h
MCF7 [2] = assay: Anti-estrogenic activity in human MCF7 cells assessed as reduction in 17beta-estradiol-induced cell viability at 100 to 200 uM after 24 hrs by MTT assay
MCF7 [3] = assay: Anti-estrogenic activity in human MCF7 cells assessed as reduction in 17beta-estradiol-induced cell viability at 100 nM after 24 hrs by MTT assay

In the case of C[C@H](CO)[C@H]1CC[C@]2(C)C[C@@H]3[C@H](CO)C[C@@H](O)[C@H]3[C@@](C)(O)C/C=C/12, the IC50 (MCF7 [1]) is reported as 567 µM and the Activity (MCF7 [2]) is reported as “Active”.

For C[C@]12CC[C@@H]3c4ccc(O)cc4C[C@@H](CCCCCCCCC[S+]([O-])CCCC(F)(F)C(F)(F)F)[C@H]3[C@@H]1CC[C@@H]2O (stereo partly drawn), the Activity (MCF7 [3]) was “Active”.
